Here are results for 5 compounds from patent US20140323476A1, “PEPTIDE DEFORMYLASE INHIBITORS” (priority 2011, published 2014).

Series [1] in a line: Hydrolytic degradation rate of reconstituted lyophile. It is filed as physicochemical. The conditions noted are these: reconstituted lyophile at 5 mg/mL.
Series [2] is described as follows: Dissolution rate in water, turbidity and visual inspection. The format is physicochemical. How it is done:
[(2R)-2-(cyclopentyl methyl)-3-(2-{5-fluoro-6-[(9aS)-hexahydropyrazino[2,1-c][1,4]oxazin-8(1h)-yl]-2-methyl-4-pyrimidinyl}hydrazino)-3-oxopropyl]hydroxyformamide was triturated with a mortar and pestle. The resulting powder (20 g, 1.0 eq, basis) was charged to a 250 mL jacketed vessel. The vessel was equipped with an overhead stirrer which was set to 60 RPM. The jacket fluid was controlled to 23° C. A solution of purified water (125 mL) and methanesulphonic acid (4.0 g, 2.7 mL, 1.0 eq) was prepared. The aqueous methanesulphonic acid solution was added to the vessel containing [(2R)-2-(cyclopentyl methyl)-3-(2-{5-fluoro-6-[(9aS)-hexahydropyrazino[2,1-c][1,4]oxazin-8(1h)-yl]-2-methyl-4-pyrimidinyl}hydrazino)-3-oxopropyl]hydroxyformamide. The resulting suspension was stirred continuously and monitored by turbidity and visual inspection. After 1 day, the turbidity and pH readings stabilized.
[(2R)-2-(cyclopentyl methyl)-3-(2-{5-fluoro-6-[(9aS)-hexahydropyrazino[2,1-c][1,4]oxazin-8(1h)-yl]-2-methyl-4-pyrimidinyl}hydrazino)-3-oxopropyl]hydroxyformamide methanesulphonate was triturated with a mortar and pestle. The resulting powder (24 g, 1.0 eq) was charged to a similar 250 mL jacketed vessel. The vessel was equipped with an overhead stirrer which was set to 60 RPM. The jacket fluid was controlled to 23° C. Purified water (125 mL) was added to the vessel containing [(2R)-2-(cyclopentylmethyl)-3-(2-{5-fluoro-6-[(9aS)-hexahydropyrazino[2,1-c][1,4]oxazin-8(1h)-yl]-2-methyl-4-pyrimidinyl}hydrazino)-3-oxopropyl]hydroxyformamide methanesulphonate. The resulting suspension was stirred continuously and monitored by turbidity and visual inspection. A clear solution was observed visually and confirmed turbidimetrically at 3 minutes.

Series [3] in a line: Degradation rate on storage at forced conditions. The format is physicochemical. As to conditions: forced conditions: 50° C., ambient humidity.
A short description of another series: pH solubility curve. It is filed as physicochemical. The conditions noted are these: thermodynamic from solid. An excerpt:
The pH solubility curve can be seen in Table 5 below.

Series [4] can be described thus: Adsorption of labile water versus relative humidity. It is filed as physicochemical.
Series [5] has as its system Staphylococcus aureus WCUH29. Briefly: Antimicrobial activity assay (MIC). As to conditions: median of all results obtained, panel run 6 times. The format is cell-based. The protocol:
(§1) Whole-cell antimicrobial activity was determined by broth microdilution using the Clinical and Laboratory Standards Institute (CLSI, formerly NCCLS) recommended methodology (NCCLS Document M7-A6, “Methods for Dilution Susceptibility Tests for Bacteria that Grow Aerobically—Approved Standard Sixth Edition”, 2003). Compounds were tested in serial two-fold dilutions ranging from 64 to 0.06 μg/mL. A panel of 12 strains was evaluated in the assay. This panel consisted of the following laboratory strains: Staphylococcus aureus Oxford, Staphylococcus aureus WCUH29, Enterococcus faecalis I, Enterococcus faecalis 7, Haemophilus influenzae Q1, Haemophilus influenzae NEMC1, Moraxella catarrhalis 1502, Streptococcus pneumoniae 1629, Streptococcus pneumoniae N1387, Streptococcus pneumoniae Ery2, Escherichia coli 7623 (AcrABEFD+) and Escherichia coli 120 (AcrAB−). The minimum inhibitory concentration (MIC) was determined as the lowest concentration of compound that inhibited visible growth. A mirror reader was used to assist in determining the MIC endpoint.

Series [6] concerns Moraxella catarrhalis 1502. The series is described as follows: Antimicrobial activity assay (MIC). It is filed as cell-based. The conditions noted are these: median of all results obtained, panel run 6 times. How it is done: as §1
Series [7] concerns Streptococcus pneumoniae 1629. The series is described as follows: Antimicrobial activity assay (MIC). The format is cell-based. As to conditions: median of all results obtained, panel run 6 times. How it is done: as §1
Series [8] concerns Escherichia coli 120 (AcrAB−). The series is described as follows: Antimicrobial activity assay (MIC). It is filed as cell-based. How it is done: as §1
For series [9], the system named is Streptococcus pneumoniae Ery2. The series is described as follows: Antimicrobial activity assay (MIC). It is filed as cell-based. The conditions noted are these: median of all results obtained, panel run 6 times. The protocol:
as §1

Series [10] deals with Staphylococcus aureus Oxford. The series is described as follows: Antimicrobial activity assay (MIC). It is filed as cell-based. The conditions noted are these: median of all results obtained, panel run 6 times. How it is done: as §1
The next series has as its system Enterococcus faecalis 7. Briefly: Antimicrobial activity assay (MIC). The format is cell-based. As to conditions: median of all results obtained, panel run 6 times. How it is done: as §1
Series [11] relates to Escherichia coli 7623 (AcrABEFD+). The series is described as follows: Antimicrobial activity assay (MIC). It is filed as cell-based. As to conditions: median of all results obtained, panel run 6 times. The protocol:
as §1

Series [12] concerns Streptococcus pneumoniae N1387. The series is described as follows: Antimicrobial activity assay (MIC). As to conditions: median of all results obtained, panel run 6 times. It is filed as cell-based. The protocol:
as §1

Series [13] relates to Haemophilus influenzae NEMC1. The series is described as follows: Antimicrobial activity assay (MIC). As to conditions: median of all results obtained, panel run 6 times. The format is cell-based. How it is done: as §1
Series [14] deals with Haemophilus influenzae Q1. The series is described as follows: Antimicrobial activity assay (MIC). The format is cell-based. As to conditions: median of all results obtained, panel run 6 times. How it is done:
as §1

The next series concerns Enterococcus faecalis I. Briefly: Antimicrobial activity assay (MIC). It is filed as cell-based. The conditions noted are these: median of all results obtained, panel run 6 times. The protocol: as §1
Another series deals with panel of 12 strains. Briefly: Antimicrobial activity assay, broth microdilution, panel of 12 strains. It is filed as cell-based. As to conditions: compared with the examples from WO 03/101442. The protocol:
as §1
A general note: In broth dilution the organism is exposed to a series of concentrations in liquid medium.

The solubility is the dissolved amount per volume that the medium holds.

≈ marks a conversion by molar mass, not a printed value.

`Cc1nc(NNC(=O)[C@H](CC2CCCC2)CN(O)C=O)c(F)c(N2CCN3CCOC[C@@H]3C2)n1` [Example 1, [(2R)-2-(Cyclopentylmethyl)-3-(2-{5-fluoro-6-[(9aS)-hexahydropyrazino[2,1-c][1,4]oxazin-8(1H)-yl]-2-methyl-4-pyrimidinyl}hydrazino)-3-oxopropyl]hydroxyformamide]: the “Degradation Rate % hydrolized/day” value in series [1] (storage temperature 5° C., listed as Free base) came to 0.06 % hydrolized/day; in series [1] (storage temperature 25° C., listed as Free base), 0.53 % hydrolized/day. For the same compound, the “time observed without complete dissolution” value in [2] (20 g powder, 125 mL purified water with 1.0 eq methanesulphonic acid, 23° C., 60 RPM) is “over 7.1 days”. For the same compound, the degradation rate in series [3] (listed as free base) came to 1.7 %/month. Further, the solubility was determined as 1.93 mg/mL (≈ 4020 µM) in “pH solubility curve” (0.003M methanesulphonic acid, pH 4.86, aqueous buffer); 4.98 mg/mL (≈ 10400 µM) in “pH solubility curve” (0.01M methanesulphonic acid, pH 4.33, aqueous buffer); 13.9 mg/mL (≈ 29000 µM) in “pH solubility curve” (0.03M methanesulphonic acid, pH 3.98, aqueous buffer); 22 mg/mL (≈ 45900 µM) in “pH solubility curve” (0.05M methanesulphonic acid, pH 3.76, aqueous buffer); 41.7 mg/mL (≈ 87000 µM) in the series “pH solubility curve” (0.1M methanesulphonic acid, pH 3.57, aqueous buffer); 116 mg/mL (≈ 242000 µM) in “pH solubility curve” (0.3M methanesulphonic acid, pH 3.34, aqueous buffer). The solubility in the series “pH solubility curve” (0.5M methanesulphonic acid, pH 3.39, aqueous buffer) stood at 193 mg/mL (≈ 402000 µM); in “pH solubility curve” (1M methanesulphonic acid, pH 3.42, aqueous buffer), 347 mg/mL (≈ 724000 µM).

Regarding `Cc1nc(NNC(=O)[C@H](CC2CCCC2)CN(O)C=O)c(F)c(N2CCN3CCOC[C@@H]3C2)n1` [Example 6], the “Degradation Rate % hydrolized/day” value is on record as 0.01 % hydrolized/day in series [1] (storage temperature 5° C., listed as Mesylate) and 0.11 % hydrolized/day in [1] (storage temperature 25° C., listed as Mesylate). In series [2] (24 g powder, 125 mL purified water, 23° C., 60 RPM), the “time to clear solution” value was found to be 3 min. For the same compound, the “dissolution and solubility compared to the free base” value in [2] (one equivalent of methanesulphonic acid and water, 160 mg/mL) is “faster dissolution and enhanced solubility”. The compound also registered a degradation rate in series [3] (listed as mesylate) of 0.2 %/month. The compound further came in with a solubility in the series “pH solubility curve” (Purified Water, pH 3.2, equilibrium not reached) greater than 452 mg/mL. The “relative humidity at which it deliquesces” value in series [4] came out at 70 % relative humidity. The “labile water adsorbed reversibly” value in series [4] (up to 70% relative humidity) is given as “up to 0.4 % (wt/wt)”.

Turning to `CS(=O)(=O)O.Cc1nc(NNC(=O)[C@H](CC2CCCC2)CN(O)C=O)c(F)c(N2CCN3CCOC[C@@H]3C2)n1` [Example 11, [(2R)-2-(Cyclopentylmethyl)-3-(2-{5-fluoro-6-[(9aS)-hexahydropyrazino[2,1-c][1,4]oxazin-8(1H)-yl]-2-methyl-4-pyrimidinyl}hydrazino)-3-oxopropyl]hydroxyl formamide methanesulfonate polymorphic Form 2], the “labile water adsorbed reversibly” value in series [4] (up to 95% relative humidity) is “up to 2 % (wt/wt)”.

With `Cc1nc(NNC(=O)[C@H](CC2CCCC2)CN(O)C=O)c(F)c(N2CCN3CCOC[C@@H]3C2)n1` [Example 24, [(2R)-2-(Cyclopentylmethyl)-3-(2-{5-fluoro-6-[(9aS)-hexahydropyrazino[2,1-c][1,4]oxazin-8(1H)-yl]-2-methyl-4-pyrimidinyl}hydrazino)-3-oxopropyl]hydroxyformamide], the MIC was found to be 0.375 µg/mL (≈ 0.782 µM) in series [5]; 0.375 µg/mL (≈ 0.782 µM) in series [6]; 0.75 µg/mL (≈ 1.56 µM) in series [7]; 0.188 µg/mL (≈ 0.391 µM) in [8]; 0.375 µg/mL (≈ 0.782 µM) in [9]; 2 µg/mL (≈ 4.17 µM) in series [10]. The MIC was 32 µg/mL (≈ 66.7 µM) in the series with Enterococcus faecalis 7; 16 µg/mL (≈ 33.4 µM) in [11]; 0.5 µg/mL (≈ 1.04 µM) in [12]; 1 µg/mL (≈ 2.09 µM) in series [13]; 0.5 µg/mL (≈ 1.04 µM) in series [14]; 48 µg/mL (≈ 100 µM) against Enterococcus faecalis I.

Consider `Cc1nc(NNC(=O)[C@H](CC2CCCC2)CN(O)C=O)c(F)c(N2CCN3CCOC[C@@H]3C2)n1` [[(2R)-2-(Cyclopentylmethyl)-3-(2-{5-fluoro-6-[(9aS)-hexahydropyrazino[2,1-c][1,4]oxazin-8(1H)-yl]-2-methyl-4-pyrimidinyl}hydrazino)-3-oxopropyl]hydroxyformamide], for which the “in vitro antibacterial activity (MIC and/or MIC90) and/or in vivo efficacy” value with panel of 12 strains was “greater in vitro antibacterial activity (MIC and/or MIC90) and/or better in vivo efficacy”.
